Results taken from patent US12403153B2, “Nicotinamide mononucleotide derivatives and use thereof in the treatment and prevention of a red blood cell disorder” (Nuvamid SA, priority 2020, dated 2025).

Tests used:
Assay type in all cases: in vivo
F-cells = assay: Percentage of F-cells using antibodies against fetal hemoglobin by FACS, blood of treated SCD mice; conditions: Townes S/S mice; for effect on proportion of circulating erythroid cells expressing fetal hemoglobin (conclusion): 185 mg/kg i.p. daily D0 to D15
Procedure: (§1) The aim of the present study was to evaluate, the effects of i.p. daily administration of compounds 001, 010 and 011 at 185 mg/kg as modulator of red blood cell sickling and fetal hemoglobin expression in erythroid cells and its potential role in therapy for sickle cell disease on mouse model of SCD.
(§2) Townes S/S mice on a 129/B6 mixed genetic background.
(§3) The powders of compounds 001, 010 and 011 (185 mg/kg) were dissolved in vehicle (the solution is used at room temperature for maximum 1 day). A fresh sample for each administration was prepared every day except the week-end (the solution is prepared on Saturday and is used on Saturday and Sunday).
(§4) In Townes S/S mice, mouse alpha- and beta-globin gene loci are deleted and replaced by human alpha- and beta-globin genes. When carrying two copies of the beta S allele, mice develop a human sickle disease phenotype with sickle-shaped red blood cells are seen in blood smears.
(§5) Group description: • Group 1: Vehicle (i.p.) • Group 2: compound 001 (185 mg/kg) • Group 3 compound 010 (185 mg/kg) • Group 4: compound 011 (185 mg/kg)
(§6) Mice were i.p treated with compounds 001, 010 and 011 during all the experiment (D0 to D15) once per day. Last injection occurred 24 hours before sacrifice.
(§7) Retro-orbital blood collection was performed at the inclusion D0 and at D5, D10 and D15 through facial vein bleeding.
(§8) Ex-vivo blood collected were assessed for percentage of F-cells using antibodies against fetal hemoglobin by FACS and reticulocyte counts using reticount by FACS. Red blood cells sickling was assessed under hypoxia.

SS RBCs = assay: RBC sickling under hypoxia ex vivo, RBCs from treated SCD mice; conditions: Townes S/S mice; for effect on red blood cell sickling under hypoxia (conclusion): 185 mg/kg i.p. daily D0 to D15; for percentage of sickling cells at D0 / percentage of sickling cells after 15 days treatment: 185 mg/kg/d i.p., RBCs ex vivo 30 minutes hypoxia (1% Oz)
Procedure: as §1, §2, §3, §4, §5, §6, §7, §8
FIGS. 3, 4 and 5 show the ability of compounds 001 (FIG. 3), 010 (FIG. 4) and 011 (FIG. 5) to prevent sickling of SS RBCs at a 1% Oz. SS RBCs from treated mice and collected at D0, D5, D10 and D15 were submitted to hypoxia for 30 minutes in a hypoxic chamber (1% Oz). Percentage of sickling RBCs was then assessed for each time point with compounds 001, 010 and 011.

reticulocytes = assay: Reticulocyte counts using Reticount by FACS, blood of treated SCD mice; conditions: Townes S/S mice, 185 mg/kg/d i.p.
Procedure: The aim of the present study was to evaluate, the effects of i.p. daily administration of compounds 001, 010 and 011 at 185 mg/kg as modulator of red blood cell sickling and fetal hemoglobin expression in erythroid cells and its potential role in therapy for sickle cell disease on mouse model of SCD. Townes S/S mice on a 129/B6 mixed genetic background. The powders of compounds 001, 010 and 011 (185 mg/kg) were dissolved in vehicle (the solution is used at room temperature for maximum 1 day). A fresh sample for each administration was prepared every day except the week-end (the solution is prepared on Saturday and is used on Saturday and Sunday). In Townes S/S mice, mouse alpha- and beta-globin gene loci are deleted and replaced by human alpha- and beta-globin genes. When carrying two copies of the beta S allele, mice develop a human sickle disease phenotype with sickle-shaped red blood cells are seen in blood smears. Group description: • Group 1: Vehicle (i.p.) • Group 2: compound 001 (185 mg/kg) • Group 3 compound 010 (185 mg/kg) • Group 4: compound 011 (185 mg/kg) Mice were i.p treated with compounds 001, 010 and 011 during all the experiment (D0 to D15) once per day. […] Ex-vivo blood collected were assessed for percentage of F-cells using antibodies against fetal hemoglobin by FACS and reticulocyte counts using reticount by FACS. Red blood cells sickling was assessed under hypoxia.

Townes S/S mice [1] = assay: Concentration of red blood cells in blood of SCD-model mice; conditions: for effect on concentration of RBC in blood: i.p. once per day D0 to D15 (compound 001 185 mg/kg, L-Gln 180 mg/kg), under normoxia and hypoxia, vs vehicle or L-Gln
Procedure: (§9) The purpose of this study is to evaluate the effects of i.p. daily administration of compound 001 at 185 mg/kg and/or L-Glutamine (L-Gln) at 180 mg/Kg on hematological parameters and RBC sickling. L-Gln has received approval by the FDA for the treatment of sickle cell disease (SCD) patients in the United States as it has been shown that L-Gln administration reduces the severity and frequency of VOCs. Townes S/S mice on a 129/B6 mixed genetic background aged 8-12 weeks. The powder of compound 001 (185 mg/kg) was dissolved in vehicle (the solution is used at room temperature for maximum 1 day). The powder of L-Glutamine (180 mg/kg) was dissolved in vehicle (the solution is used at room temperature for maximum 1 day). In Townes S/S mice, mouse alpha- and beta-globin gene loci are deleted and replaced by human genes coding for the alpha- and beta-globin. When carrying two copies of the beta S allele, mice develop a human sickle disease phenotype with sickle-shaped red blood cells are seen in blood smears. Group description: • Group 1: Vehicle PBS (i.p.) • Group 2: Compound 001 (185 mg/kg) • Group 3 L-Gln (180 mg/kg) • Group 4: Compound 001 (185 mg/kg)+L-Gln (180 mg/kg) Mice were i.p treated with Compound 001, L-Gln or the combination of compound 001+L-Gln during all the experiment (D0 to D15) once per day. Last injection occurred 24 hours before sacrifice. Retro-orbital blood collection was performed at the inclusion and at D15. Ex-vivo blood collected were assessed for blood parameters and RBC sickling ex vivo under normoxia (20% Oz) and hypoxia (1% Oz for 0.5 hour).

Townes S/S mice [2] = assay: Hemoglobin concentration in blood of SCD-model mice; conditions: for effect on hemoglobin concentration in blood: i.p. once per day D0 to D15 (compound 001 185 mg/kg, L-Gln 180 mg/kg), under normoxia and hypoxia, vs vehicle or L-Gln
Procedure: as §9

Townes S/S mice [3] = assay: Hematocrit percentage in blood of SCD-model mice; conditions: for effect on hematocrit percentage in blood: i.p. once per day D0 to D15 (compound 001 185 mg/kg, L-Gln 180 mg/kg), under normoxia and hypoxia, vs vehicle or L-Gln
Procedure: as §9, with “hour). […] III. CONCLUSION” for “hour).”

[4] = 185 mg/kg/d i.p., hypoxia (1% Oz for 0.5 hour) vs normoxia

Row | Compound | effect on proportion of circulating erythroid cells expressing fetal hemoglobin (conclusion) (F-cells) | effect on red blood cell sickling under hypoxia (conclusion) (SS RBCs) | percentage of sickling cells at D0 (SS RBCs) | percentage of sickling cells after 15 days treatment (SS RBCs) | mean F-cells after treatment (F-cells; 185 mg/kg/d i.p., over the 15 days treatment) | mean F-cells, starting value (F-cells; 185 mg/kg/d i.p., value before the 15 days treatment) | percentage of reticulocytes after treatment (reticulocytes; over the 15 days treatment) | percentage of reticulocytes, starting value (reticulocytes; value before the 15 days treatment) | effect of hypoxia on RBC in blood of treated mice (Townes S/S mice [1]; [4]) | effect on concentration of RBC in blood (Townes S/S mice [1]) | effect of hypoxia on hemoglobin in blood of treated mice (Townes S/S mice [2]; [4]) | effect on hemoglobin concentration in blood (Townes S/S mice [2]) | effect of hypoxia on hematocrit percentage in blood of treated mice (Townes S/S mice [3]; [4]) | effect on hematocrit percentage in blood (Townes S/S mice [3])
1 | α,β-diNMN [Compound 010] | increase the proportion of circulating erythroid cells expressing fetal hemoglobin | reduce red blood cell sickling under hypoxia | 32% | less than 15% |  |  |  |  |  |  |  |  |  | 
2 | NC(=O)c1ccc[n+]([C@@H]2O[C@H](COP(=O)([O-])O)[C@@H](O)[C@H]2O)c1 (stereo in doubt) [Compound 001, NMN] | increase the proportion of circulating erythroid cells expressing fetal hemoglobin | reduce red blood cell sickling under hypoxia | 40% | less than 10% | 8% | less than 5% | 30% | 70% | did not result in a decrease | significant increase | did not result in a decrease | significant increase | did not result in a decrease | significant increase
3 | NC(=O)CC[C@H](N)C(=O)O [L-Gln, L-Glutamine, reference compound] |  |  |  |  |  |  |  |  |  | did not affect |  | did not affect |  | did not affect
4 | α,α-diNMN [Compound 011] | increase the proportion of circulating erythroid cells expressing fetal hemoglobin | reduce red blood cell sickling under hypoxia | 31% | 20% |  |  |  |  |  |  |  |  |  | 
